Laboratory results reported in ChEMBL document CHEMBL3988442, “University of Dundee, Small-Polar-MMV Screening Library” (2021).
“And” between values parts separate entries of the source, which are not always exact repeats. Identical values can stand only once.

Key:
Schistosoma mansoni = test: High throughput screening of compounds against Schistosoma mansoni motility; format: functional; parameters: dose or concentration left out as unconfirmed
[1] = target: Chromo domain-containing protein 1 (Saccharomyces cerevisiae (strain ATCC 204508 / S288c) (Baker's yeast), UniProt P32657); test: ScCHD-1 Enzyme Inhibition Assay; format: functional
Plasmodium falciparum = test: Calibr Malaria Delayed Death Assay SOP; format: functional, organism-based
Histidine--tRNA ligase = target: T1, Histidine--tRNA ligase (Trypanosoma cruzi (strain CL Brener), UniProt Q4DA54); test: Trypanosoma cruzi histidyl tRNA synthetase (Tc-HisRS); format: functional
T1 sequence (Q4DA54 whole entry): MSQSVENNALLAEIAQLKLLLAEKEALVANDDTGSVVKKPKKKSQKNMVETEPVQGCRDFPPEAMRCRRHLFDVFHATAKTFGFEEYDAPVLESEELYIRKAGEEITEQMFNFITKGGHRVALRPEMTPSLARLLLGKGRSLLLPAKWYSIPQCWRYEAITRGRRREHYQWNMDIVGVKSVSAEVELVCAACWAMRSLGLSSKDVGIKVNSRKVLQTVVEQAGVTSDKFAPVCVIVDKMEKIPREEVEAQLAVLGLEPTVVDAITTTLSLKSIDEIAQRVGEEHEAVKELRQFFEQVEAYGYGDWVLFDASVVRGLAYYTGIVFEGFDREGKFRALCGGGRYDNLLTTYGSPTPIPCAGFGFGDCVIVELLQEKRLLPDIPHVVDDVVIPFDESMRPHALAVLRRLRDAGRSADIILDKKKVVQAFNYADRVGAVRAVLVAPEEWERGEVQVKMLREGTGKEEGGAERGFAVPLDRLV

[2] = microbe, parasite or virus in culture; conditions: Mycobacterium tuberculosis, 72 h, read-out: pIC50 (converted)
[3] = microbe, parasite or virus in culture; conditions: Mycobacterium tuberculosis, 96 h, read-out: pIC50 (converted)
Wolbachia pipientis = test: Anti-Wolbachia Cell-Based Screen; format: functional

Chromo domain-containing protein 1, sequence (P32657 whole entry, the tested form may be a part): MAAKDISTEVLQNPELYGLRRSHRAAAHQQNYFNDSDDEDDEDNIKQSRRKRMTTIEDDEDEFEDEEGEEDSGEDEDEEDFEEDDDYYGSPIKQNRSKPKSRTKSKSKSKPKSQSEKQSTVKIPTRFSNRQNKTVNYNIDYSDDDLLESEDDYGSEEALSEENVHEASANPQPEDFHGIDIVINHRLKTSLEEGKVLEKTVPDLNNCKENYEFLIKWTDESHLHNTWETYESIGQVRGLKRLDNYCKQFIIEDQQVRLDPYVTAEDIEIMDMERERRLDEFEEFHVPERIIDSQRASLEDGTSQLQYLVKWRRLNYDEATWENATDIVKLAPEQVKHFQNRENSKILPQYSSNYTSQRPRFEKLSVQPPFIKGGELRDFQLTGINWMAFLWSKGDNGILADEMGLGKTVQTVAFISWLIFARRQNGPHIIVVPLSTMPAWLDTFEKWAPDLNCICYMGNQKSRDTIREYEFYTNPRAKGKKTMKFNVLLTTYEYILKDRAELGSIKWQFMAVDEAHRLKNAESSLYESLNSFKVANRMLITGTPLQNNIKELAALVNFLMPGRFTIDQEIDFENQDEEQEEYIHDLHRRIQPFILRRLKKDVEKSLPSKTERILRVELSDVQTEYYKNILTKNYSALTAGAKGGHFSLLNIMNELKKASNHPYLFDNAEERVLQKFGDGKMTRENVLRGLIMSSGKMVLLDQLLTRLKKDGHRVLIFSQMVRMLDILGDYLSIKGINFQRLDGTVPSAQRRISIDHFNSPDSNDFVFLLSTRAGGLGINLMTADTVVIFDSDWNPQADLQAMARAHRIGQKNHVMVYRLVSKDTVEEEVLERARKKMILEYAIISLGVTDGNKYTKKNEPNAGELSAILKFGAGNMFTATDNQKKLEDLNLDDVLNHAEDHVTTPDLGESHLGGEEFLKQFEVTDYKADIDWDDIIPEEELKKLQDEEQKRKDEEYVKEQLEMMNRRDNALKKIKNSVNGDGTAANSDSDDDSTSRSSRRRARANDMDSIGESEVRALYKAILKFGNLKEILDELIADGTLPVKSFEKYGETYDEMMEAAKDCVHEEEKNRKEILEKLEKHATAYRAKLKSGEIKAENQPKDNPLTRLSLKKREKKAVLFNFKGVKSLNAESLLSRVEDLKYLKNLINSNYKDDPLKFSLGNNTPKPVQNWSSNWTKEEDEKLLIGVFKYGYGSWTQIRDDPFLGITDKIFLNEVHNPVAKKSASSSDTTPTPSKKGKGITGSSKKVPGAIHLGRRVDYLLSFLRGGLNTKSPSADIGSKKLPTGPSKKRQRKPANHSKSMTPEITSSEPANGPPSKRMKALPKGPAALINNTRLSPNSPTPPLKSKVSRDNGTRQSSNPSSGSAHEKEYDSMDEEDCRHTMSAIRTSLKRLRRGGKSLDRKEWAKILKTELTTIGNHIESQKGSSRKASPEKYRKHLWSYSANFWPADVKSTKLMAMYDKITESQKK

SMILES | IC50 [1] | also measured
O=C(NCC(O)c1ccccc1Cl)c1cccc(-n2cnnn2)c1 (centres undefined) | > 29.5 µM | Percent Effect (Schistosoma mansoni): -46.05%
CCn1ccnc1-c1nc2cc(S(=O)(=O)N3CCCC3)ccc2n1C | > 29.5 µM | Percent Effect (Schistosoma mansoni): -59.51%
CSc1ccccc1CN1CCCn2nc(CNC(=O)N(C)C)cc2C1 | > 29.5 µM | Percent Effect (Schistosoma mansoni): -17.72%
COC(=O)c1ccc2ccn(CC3CCCO3)c(=O)c2c1 (centres undefined) | > 29.5 µM | Percent Effect (Schistosoma mansoni): -62.88%
COc1ccccc1CN(C)C(=O)c1cc(CN2CCC(O)CC2)on1 | > 29.5 µM | Percent Effect (Schistosoma mansoni): -57.63%
OCC1CCCCN1c1ccc(-c2nc(-c3ccccc3F)no2)cn1 (centres undefined) | > 29.5 µM | pIC50 (Plasmodium falciparum): 7.272 and 6.795
Cc1noc([C@@H]2CCCN2C(=O)C2CCN(C(=O)C3CCC3)CC2)n1 | > 29.5 µM | Percent Effect (Schistosoma mansoni): 8.394%
NC(=O)C1CCN(C(=O)c2cccc(CN3CCOCC3)c2)CC1 | > 29.5 µM | Percent Effect (Schistosoma mansoni): 38.13%
Cc1ccc(-c2nc(CNC3CCc4ncnn4C3)co2)c(C)c1 (centres undefined) | > 29.5 µM | 
CC(C)c1nc(C2CCCN2Cc2ccccc2C#N)no1 (centres undefined) | > 29.5 µM | 
c1ncn(CC2CCCCN2Cc2csc(C3CCCC3)n2)n1 (centres undefined) | > 29.5 µM | 
Cc1cc(C(=O)N2CCCCC2c2nc(C)cs2)[nH]n1 (centres undefined) | > 29.5 µM | 
COc1ccc(C(=O)N2CCCCC2c2nc(C)cs2)nn1 (centres undefined) | 21.8 µM and > 29.5 µM | 
O=C(CS(=O)(=O)CC1CCCCC1)NC1CCCCNC1=O (centres undefined) | > 29.5 µM | 
CN(C)c1ccc(CNc2cncc(-n3cccn3)n2)cc1 | > 29.5 µM | 
CN(C)C(CNC(=O)c1cc2c([nH]c1=O)CCCC2=O)c1ccsc1 (centres undefined) | > 29.5 µM | 
CCOCCN1CCN(Cc2cccc(C(=O)N(C)C)c2)CC1 | > 29.5 µM | 
CCc1nc(C2CCCN(C(=O)c3cn(C)nc3C)C2)no1 (centres undefined) | > 29.5 µM | 

SMILES | IC50 [1] | also measured
CNC(=O)COc1ccccc1CNC1CCc2ncnn2C1 (centres undefined) | > 29.5 µM | 
CNC(=O)C1CCC(NC(=O)N(C)Cc2c(C)noc2C)CC1 (centres undefined) | > 29.5 µM | 
O=C1NCc2ccc(NC(=O)C3CCCN3c3nccs3)cc21 (centres undefined) | > 29.5 µM | 
CC(Cn1cccn1)NC(=O)N1CCN(Cc2cccs2)CC1 (centres undefined) | > 29.5 µM | 
CC(NC(=O)c1cc(Br)c2c(c1)OCCO2)C(N)=O (centres undefined) | > 29.5 µM | 
CC(=O)N(Cc1noc(C)n1)C1CCN(Cc2ccon2)C1 (centres undefined) | > 29.5 µM | 
CNS(=O)(=O)c1cccc(CNC(=O)c2c(C)oc(C)c2C)c1 | > 29.5 µM | 
O=C(c1csc(Br)c1)N1CCCC(n2ccnc2)C1 (centres undefined) | > 29.5 µM | 
COc1ccc(CC(=O)N(C)Cc2nnc3ccccn23)cc1 | > 29.5 µM | 
Cc1ccccc1CC(C)NCc1c(C)nn(C)c1N1CCOCC1.Cl (centres undefined) | > 29.5 µM | Percent Effect (Schistosoma mansoni): 7.535%
COCCN1CCC2(CCN(c3ncccn3)CC2)C1=O |  | IC50 (Histidine--tRNA ligase): > 100 µM
CCN1CCC2(CCN(c3ncccn3)CC2)C1=O |  | IC50 (Histidine--tRNA ligase): > 100 µM
Cc1cnc(N2CCC3(CCN(CC4CCCC4)C3=O)CC2)nc1 |  | IC50 (Histidine--tRNA ligase): > 100 µM
O=C1N(CC2CCCC2)CCC12CCN(c1ncc(F)cn1)CC2 |  | IC50 (Histidine--tRNA ligase): > 100 µM
Cn1nc(Cn2ccnc2)c2c1CN(c1ncccn1)C2 |  | IC50 (Histidine--tRNA ligase): > 100 µM
Cc1ccc(N2CCCC3(COCCN(c4ccccn4)C3)C2)nn1 (centres undefined) |  | IC50 (Histidine--tRNA ligase): > 100 µM
Cc1ccc(N2CCCC3(COCCN(c4ncccn4)C3)C2)nn1 (centres undefined) |  | IC50 (Histidine--tRNA ligase): > 100 µM
COc1ccc(C[C@H]2CN(c3nnc(C)s3)CC[C@@H]2OC)cc1.O=C(O)C(F)(F)F | > 29.5 µM | IC50 [2]: > 50.1 µM; IC50 [3]: 24.7 µM; pIC50 (Wolbachia pipientis): 5.531; IC50 (Wolbachia pipientis; Wolbachia pipientis): 3.58 µM
